The target in series [1] is T1, CCR7 (Mus musculus, UniProt P47774).
T1 construct: endogenous in cells; host or cells: mouse splenocytes
T1 sequence (P47774 25-378): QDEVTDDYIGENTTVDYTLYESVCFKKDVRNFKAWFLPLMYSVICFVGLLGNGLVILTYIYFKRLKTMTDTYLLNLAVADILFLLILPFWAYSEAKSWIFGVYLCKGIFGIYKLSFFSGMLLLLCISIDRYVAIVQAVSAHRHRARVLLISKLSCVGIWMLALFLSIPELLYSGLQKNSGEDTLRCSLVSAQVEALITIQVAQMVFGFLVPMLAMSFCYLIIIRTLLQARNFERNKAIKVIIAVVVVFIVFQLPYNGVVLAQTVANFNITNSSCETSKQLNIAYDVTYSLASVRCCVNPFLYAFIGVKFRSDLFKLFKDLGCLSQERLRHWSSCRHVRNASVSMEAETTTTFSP
The series is described as follows: CCR7-dependent mouse splenocyte migration to CCL19. In kind it is cell-based. Particulars: 100 nM CCL19. Here is the method:
Splenocyte ctx and 100 nM CCL19 were used.

The target of series [2] is T2, huCMKLR1 (Homo sapiens, UniProt Q99788).
T2 sequence (Q99788 1-373): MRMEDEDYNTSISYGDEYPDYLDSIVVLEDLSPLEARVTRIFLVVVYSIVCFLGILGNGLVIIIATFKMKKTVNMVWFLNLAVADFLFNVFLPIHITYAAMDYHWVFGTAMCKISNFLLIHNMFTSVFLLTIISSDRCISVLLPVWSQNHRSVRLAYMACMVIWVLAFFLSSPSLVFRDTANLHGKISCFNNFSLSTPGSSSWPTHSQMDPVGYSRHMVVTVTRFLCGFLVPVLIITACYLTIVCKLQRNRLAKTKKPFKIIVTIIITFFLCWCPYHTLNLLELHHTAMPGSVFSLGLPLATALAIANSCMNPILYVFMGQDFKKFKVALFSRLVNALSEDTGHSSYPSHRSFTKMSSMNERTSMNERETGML
Briefly: Inhibition of chemerin-triggered human CMKLR1/L1.2 cell migration. In kind it is cell-based. Details: expressed in transfected cells; host or cells: L1.2 cells. Particulars: 1 nM chemerin. How it is done: 2-(alpha-Naphthoyl)ethyltrimethyl ammonium iodide (aNETA) was tested for inhibition of chemerin-triggered human CMKLR1/L1.2 cell migration. huCMKLR1/L1.2 ctx and 1 nM chemerin were used. The assay was performed in 0.5% BSA, buffer (10% FBS), or 100% human serum.

Series [3] has as its system leukocyte infiltration of CNS in EAE. Briefly: Leukocyte infiltration of CNS in EAE. The class given is in vivo, mouse. The note with it: EAE mice.
Series [4] concerns the target T3, C5aR (Mus musculus, UniProt P30993).
T3 construct: endogenous in cells; host or cells: mouse bone-marrow neutrophils
T3 sequence (P30993 1-351): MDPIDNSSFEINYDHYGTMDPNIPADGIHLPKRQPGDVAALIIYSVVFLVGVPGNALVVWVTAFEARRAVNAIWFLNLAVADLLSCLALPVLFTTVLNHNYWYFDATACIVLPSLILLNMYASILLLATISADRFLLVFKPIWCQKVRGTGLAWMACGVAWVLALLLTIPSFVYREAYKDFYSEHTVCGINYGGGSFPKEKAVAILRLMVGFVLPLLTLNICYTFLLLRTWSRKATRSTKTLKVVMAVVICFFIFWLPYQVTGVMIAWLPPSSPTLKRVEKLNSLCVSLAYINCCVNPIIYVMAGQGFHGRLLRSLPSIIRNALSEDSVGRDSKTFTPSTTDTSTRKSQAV
The series is described as follows: C5aR-dependent mouse BM neutrophil chemotaxis to C5a. Particulars: 100 nM C5a. The class given is cell-based. Here is the method:
Neutrophil ctx and 100 nM C5a were used.

The target of series [5] is T4, mouse CMKLR1 (Mus musculus, UniProt P97468).
T4 construct: expressed in transfected cells; host or cells: L1.2 cells
T4 sequence (P97468 1-371): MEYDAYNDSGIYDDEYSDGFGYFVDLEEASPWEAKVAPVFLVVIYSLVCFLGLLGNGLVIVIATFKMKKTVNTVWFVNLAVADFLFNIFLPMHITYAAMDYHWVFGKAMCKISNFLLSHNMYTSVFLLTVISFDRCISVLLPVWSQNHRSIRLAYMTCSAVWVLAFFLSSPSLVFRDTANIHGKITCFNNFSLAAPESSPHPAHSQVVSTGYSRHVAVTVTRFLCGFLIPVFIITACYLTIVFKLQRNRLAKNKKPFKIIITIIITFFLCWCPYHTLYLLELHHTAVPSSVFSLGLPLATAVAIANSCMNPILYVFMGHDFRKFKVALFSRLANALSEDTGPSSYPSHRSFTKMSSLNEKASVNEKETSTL
Briefly: Inhibition of chemerin-triggered mouse CMKLR1/L1.2 cell migration. In kind it is cell-based. The note with it: 1 nM chemerin. Here is the method: 2-(alpha-Naphthoyl)ethyltrimethyl ammonium iodide (aNETA) was tested for inhibition of chemerin-triggered mouse CMKLR1/L1.2 cell migration. mCMKLR1/L1.2 ctx and 1 nM chemerin were used. The assay was performed in 0.5% BSA, buffer (10% FBS), or 100% human serum.

Series [6] concerns the target T5, CXCR4 (Mus musculus, UniProt P70658).
T5 construct: endogenous in cells; host or cells: mouse splenocytes
The series is described as follows: CXCR4-dependent mouse splenocyte migration to CXCL12. The class given is cell-based. The note with it: 100 nM CXCL12. How it is done:
Splenocyte ctx and 100 nM CXCL12 were used.

In series [7] the target is T6, FPR (Mus musculus, UniProt P33766).
T6 construct: endogenous in cells; host or cells: mouse bone-marrow neutrophils
T6 sequence (P33766 1-364): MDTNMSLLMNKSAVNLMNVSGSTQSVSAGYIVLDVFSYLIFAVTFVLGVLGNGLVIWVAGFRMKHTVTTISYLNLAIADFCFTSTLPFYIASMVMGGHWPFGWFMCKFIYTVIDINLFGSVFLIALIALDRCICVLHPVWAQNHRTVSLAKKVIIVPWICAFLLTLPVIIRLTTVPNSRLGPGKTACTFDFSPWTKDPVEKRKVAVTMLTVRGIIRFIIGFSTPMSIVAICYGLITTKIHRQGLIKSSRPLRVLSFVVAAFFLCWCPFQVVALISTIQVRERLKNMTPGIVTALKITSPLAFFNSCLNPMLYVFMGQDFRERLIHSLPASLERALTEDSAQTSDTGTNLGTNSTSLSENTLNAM
Briefly: FPR-dependent mouse BM neutrophil chemotaxis to fMLP. The class given is cell-based. Particulars: 100 nM fMLP. How it is done:
Neutrophil ctx and 100 nM fMLP were used.

The target in series [8] is T7, CXCR4 (Homo sapiens, UniProt P61073).
T7 construct: endogenous in cells; host or cells: MOLT-4 (human T-cell line)
The series is described as follows: CXCR4-dependent MOLT-4 migration to CXCL12. The class given is cell-based. Particulars: MOLT4 human T-cell line; 1 nM CXCL12. Here is the method:
MOLT4 cell ctx (human T-cell line) and 1 nM CXCL12 were used.

Series [9] deals with T8, CCR9 (Homo sapiens, UniProt P51686).
T8 construct: endogenous in cells; host or cells: MOLT-4 (human T-cell line)
T8 sequence (P51686 1-369): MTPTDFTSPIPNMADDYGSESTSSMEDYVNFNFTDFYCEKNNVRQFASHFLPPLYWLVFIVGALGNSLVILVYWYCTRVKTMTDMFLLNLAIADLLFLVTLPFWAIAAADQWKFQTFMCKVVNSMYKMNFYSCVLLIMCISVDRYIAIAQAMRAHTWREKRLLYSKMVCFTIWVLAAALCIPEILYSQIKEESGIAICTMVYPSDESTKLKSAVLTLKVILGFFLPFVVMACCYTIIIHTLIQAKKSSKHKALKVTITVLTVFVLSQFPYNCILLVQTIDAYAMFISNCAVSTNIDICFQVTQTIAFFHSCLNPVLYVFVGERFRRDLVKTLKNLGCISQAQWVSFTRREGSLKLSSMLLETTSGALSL
The series is described as follows: CCR9-dependent MOLT-4 migration to CCL25. The class given is cell-based. The note with it: MOLT4 human T-cell line; 250 nM TECK. How it is done:
MOLT4 cell ctx (human T-cell line) and 250 nM TECK were used.

The target of series [10] is T2, huCMKLR1. Briefly: Inhibition of chemerin-triggered huCMKLR1 association with beta-arrestin2 (PathHunter CHO-K1 enzyme fragment complementation). Also noted: host or cells: CHO-K1. In kind it is cell-based. The text has this:
With reference to FIG. 1, early event in receptor internalization is ligand-triggered association with beta-arrestin2. This process turns off receptor signaling. Enzyme complementation can be used to measure CMKLR1 association with beta-arrestin2. In this assay β-Galactosidase is split into two complementary enzyme fragments, one is attached to CMKLR1, the other to beta-arrestin2. If ligand interaction with CMKLR1 promotes its association with β-arrestin2, the enzyme fragments join and become active. An assay, such as PathHunter® CHO-K1 CMKLR1 β-Arrestin GPCR Assays (DiscoverX, Inc., Fremont, Calif.) can provide a method for monitoring activation of the CMKLR1 GPCR receptor through arrestin recruitment in live cells. CMKLR1 cells are engineered to co-express a ProLink (PK)-tagged GPCR and the Enzyme Acceptor (EA)-tagged β-Arrestin fusion proteins. Upon GPCR activation, the two enzyme fragments are brought together, forming an active β-Gal enzyme through Enzyme Fragment Complementation (EFC). A LOPAC (Library of Pharmacologically Active Compounds) library (Sigma-Aldrich, St. Louis, Mo.) was screened for inhibition of chemerin-triggered […]1 association with βARR. Three hits were obtained from a primary screen of LOPAC library. […] The assay was performed in both buffer (10% FBS) or 100% human serum.

Series [11] has as its system experimental autoimmune encephalomyelitis (EAE). The series is described as follows: Clinical EAE in vivo (MOG 35-55 induced). Particulars: mouse; for Onset of EAE / Animals that developed EAE (disease incidence): subcutaneous; for Onset of EAE: 10% captisol.
For series [12], the system named is huCMKLR1/βARR CHO, huCMKLR1/L1.2 cell lines and splenocytes. Briefly: In vitro cytotoxicity, annexin V FITC / propidium iodide assay. In kind it is cell-based. The note with it: 90 minute incubation at 37° C., huCMKLR1/L1.2, splenocytes.
Procedure: The in vitro cytotoxicity of aNETA can be determined with an annexin V FITC assay kit. […] The analysis can be performed with a FITC-conjugated annexin-V, which has a strong affinity for extracellular phosphatidylserines, and the fluorescent intercalating agent propidium iodide (PI).
With reference to FIG. 11, cell lines (huCMKLR1/βARR CHO and huCMKLR1/L1.2) and splenocytes were used. aNETA was tested with 90 minute incubation at 37° C.

Consider 1 compound from patent publication US9265738B2, “Small molecule CMKLR1 antagonists in demyelinating disease” (The Board of Trustees of the Leland Stanford Junior …, priority 2012, dated 2016).

T5 sequence (P70658 whole entry): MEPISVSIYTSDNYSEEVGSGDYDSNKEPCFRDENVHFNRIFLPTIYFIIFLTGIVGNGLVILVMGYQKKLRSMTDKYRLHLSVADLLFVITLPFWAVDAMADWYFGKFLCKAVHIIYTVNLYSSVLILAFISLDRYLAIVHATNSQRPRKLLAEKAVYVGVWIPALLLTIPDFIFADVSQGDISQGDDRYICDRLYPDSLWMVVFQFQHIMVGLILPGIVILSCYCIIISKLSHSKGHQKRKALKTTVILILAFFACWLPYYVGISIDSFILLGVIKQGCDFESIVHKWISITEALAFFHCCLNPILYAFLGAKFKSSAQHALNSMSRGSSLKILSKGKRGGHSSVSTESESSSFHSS
T7 sequence (P61073 whole entry): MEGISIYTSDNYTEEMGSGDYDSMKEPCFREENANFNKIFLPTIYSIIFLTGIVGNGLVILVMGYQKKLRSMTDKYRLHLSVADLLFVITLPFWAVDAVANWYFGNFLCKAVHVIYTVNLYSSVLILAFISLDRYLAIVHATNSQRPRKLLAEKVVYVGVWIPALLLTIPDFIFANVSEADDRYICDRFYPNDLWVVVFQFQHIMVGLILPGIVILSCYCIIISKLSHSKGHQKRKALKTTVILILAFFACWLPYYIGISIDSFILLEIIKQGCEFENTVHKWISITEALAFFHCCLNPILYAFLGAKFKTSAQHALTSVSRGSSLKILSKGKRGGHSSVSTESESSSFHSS

For the compound `C[N+](C)(C)CCC(=O)c1cccc2ccccc12.[I-]` [aNETA, 2-(alpha-naphthoyl)ethyltrimethyl ammonium iodide], the “Inhibition of CCR7-dependent mouse splenocyte migration to CCL19” value in series [1] was “does not inhibit”. Besides, the IC50 in [2] (0.5% BSA) was determined as 1.2 µM; in series [2] (100% human serum) it was 1.3 µM; in series [2] (buffer (10% FBS)), 1.2 µM; in series [5] (0.5% BSA), 9.6 µM; in series [5] (100% human serum) it was 1.2 µM; in series [5] (buffer (10% FBS)), 1.1 µM. Moreover, the IC50 in [10] (100% human serum, huCMKLR1/βARR CHO cells, 7 nM chemerin, read-out: IC50, inhibition of chemerin-triggered huCMKLR1 association with βARR) was 0.62 µM; in series [10] (buffer (10% FBS), huCMKLR1/βARR CHO cells, 7 nM chemerin, read-out: IC50, inhibition of chemerin-triggered huCMKLR1 association with βARR), 0.35 µM; in series [10] (in vitro cell-based bioassay, read-out: IC50, inhibition of chemerin mediated beta-arrestin2 association with CMKLR1), roughly 0.35 µM. The “Leukocyte infiltration of the CNS compared to vehicle” value in series [3] (daily 10 mg/kg) was “fewer leukocytes present”. Further, the “Leukocytes in the spleen compared to vehicle” value in [3] (daily 10 mg/kg and 3 mg/mg) was “more leukocytes present”. Moreover, the “Inhibition of C5aR-dependent mouse BM neutrophil chemotaxis to C5a” value in series [4] was “does not inhibit”. Also, the “Inhibition of CXCR4-dependent mouse splenocyte migration to CXCL12” value in series [6] is listed as “does not inhibit”. For the same compound, in series [7], the “Inhibition of FPR-dependent mouse BM neutrophil chemotaxis to fMLP” value is “does not inhibit”. Also, the “Inhibition of CXCR4-dependent MOLT-4 migration to CXCL12” value in series [8] is given as “does not inhibit”. Further, the “Inhibition of CCR9-dependent MOLT-4 migration to CCL25” value in [9] is recorded as “does not inhibit”. Moreover, the “Onset of EAE” value in [11] (1 mg/kg daily) is 17.8 days post-immunization; in series [11] (10 mg/kg daily), 26 days post-immunization. For the same compound, the “Animals that developed EAE (disease incidence)” value came out at 19% in [11] (3 mg/kg daily, 3/16) and 7% in series [11] (10 mg/kg daily, 1/16). The “Effect on onset of EAE” value in series [11] (10 mg/kg s.c. daily for 8 days, then every other day) was “significantly delayed”. In series [12], the “In vitro cytotoxicity (annexin V / PI)” value is on record as “does not appear to be acutely toxic”.
